By Cmax is commonly meant the maximum level reached in the sampled fluid or tissue. The term IC50 denotes the concentration at which inhibition is half-maximal. Usually inhibition stands for the change of the read-out against control, counted positive when it falls.

Series [1] in a line: Rat pharmacokinetics (oral). It counts as in vivo. Conditions: plasma, 10 mg/kg, SD rat, 2 mg/mL solution at 5 mL/kg; for AUC(0-inf): read-out: Rat pharmacokinetics AUCinf; for half-life: read-out: Rat pharmacokinetics t1/2 (converted). The procedure:
The weight of each ICR mouse and SD rat was properly 20˜30 g and 200˜300 g, and dosage of the compound of the present invention was 10 mL/kg for mice and 5 mL/kg for rats, and administered orally using Zonde. Blood collection was performed at 0.25, 0.5, 1, 2, 4, 6, 8 and 24 hours by orbital venous blood collection using a capillary tube coated with an anticoagulant, and then plasma was isolated using a centrifuge and kept in a freezer.
Plasma collected from animals and standard concentration material were pretreated using solid-phase extraction, and concentration of the compound of the invention was determined using a liquid chromatography mass spectrometer (Agilent HPLC, API-3000).
According to the resulting concentration value, the pharmacokinetics parameter was found using WinNonlin (Version 6.2) and half-life (t1/2), maximum blood concentration (Cmax) and infinite area under the curve (AUCinf) are shown in Tables 6 and 7 below.

In series [2] the target is human serotonin 3 receptor (human 5-HT3 receptor) (Homo sapiens (Human), UniProt P46098). Briefly: Binding affinity of human serotonin 3 receptor (performed at Cerep). The note with it: for IC50: read-out: Binding affinity (IC50) of human serotonin 3 receptor (h5-HT3R); for inhibition at 10 µM: read-out: % inhibition degree at 10 μM, human serotonin 3 receptor (h5-HT3R). The procedure: The binding assays of the human serotonin 3 receptor for present invention were performed at Cerep (Poitiers, France), and the results of analysis are shown in Table 3.
Sequence of human serotonin 3 receptor (human 5-HT3 receptor) (P46098 24-478): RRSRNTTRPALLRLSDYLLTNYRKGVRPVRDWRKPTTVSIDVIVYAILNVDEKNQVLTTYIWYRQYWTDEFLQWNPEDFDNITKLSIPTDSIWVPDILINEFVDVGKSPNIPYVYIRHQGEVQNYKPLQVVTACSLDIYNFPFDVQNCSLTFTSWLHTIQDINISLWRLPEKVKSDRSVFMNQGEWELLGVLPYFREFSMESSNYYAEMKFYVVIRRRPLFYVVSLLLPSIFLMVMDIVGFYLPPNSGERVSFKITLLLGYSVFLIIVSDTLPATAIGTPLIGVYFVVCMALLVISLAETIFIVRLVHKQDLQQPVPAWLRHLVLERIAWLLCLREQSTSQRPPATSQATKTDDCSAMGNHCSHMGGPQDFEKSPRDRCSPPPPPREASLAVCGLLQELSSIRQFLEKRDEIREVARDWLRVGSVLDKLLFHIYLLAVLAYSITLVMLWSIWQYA

The test system of series [3] is Dermatophagoides farina-induced atopic dermatitis, NC/Nga mice. Briefly: Dermatophagoides farina-induced atopic dermatitis NC/Nga mouse model. The note with it: BID, oral, 3 weeks, control group (Df) 9.0. It counts as in vivo. On the procedure:
Female, NC/Nga mice (3 weeks old, 15-17 g) were purchased from Central Lab. Animal Inc. The animals were housed in conditions of controlled temperature (23±3° C.), humidity (50±5%) and lighting with food and water available ad libitum.
The hair of back of the mice was shaved with clipper, and the remaining hair was removed completely using shaving cream. For barrier disruption, 150 μL of 4% sodium dodecyl sulfate (SDS) was applied to the shaved back skin The Df ointment (100 mg/mouse) was applied twice a week for 3 weeks. The compound were administered orally twice a day in the morning and afternoon for 3 weeks, and then the severity of dermatitis was evaluated on days 2, 7, 10, 14 and 21. The development of (1) erythema/haemorrhage, (2) scarring/dryness, (3) oedema, (4) excoriation/erosion was scored as 0 (none), 1 (mild), 2 (moderate) and 3 (severe). The total skin score was defined as the sum of the individual scores. (Scandinavian Journal of Immunol. 2011, 73, 536-545). Statistical analysis was analyzed using one-way ANOVA with Dunnett test. Values of p<0.05 were considered statistically.

For the compound `CN1CCN(c2nc3ncc(Cl)cc3n3cnnc23)CC1` [Compound 4, 8-Chloro-4-(4-methylpiperazin-1-yl)pyrido[2,3-e][1,2,4]triazolo[4,3-a]pyrazine], in series [1], the concentration peaked (Cmax) at 1950 ng/mL, the AUC(0-inf) was 7740 ng·h/mL and the half-life is 1.88 h.

As to `Clc1cnc2nc(N3CCNCC3)c3nncn3c2c1` [Compound 7, 8-Chloro-4-(piperazin-1-yl)pyrido[2,3-e][1,2,4]triazolo[4,3-a]pyrazine], in series [1], the concentration peaked (Cmax) at 1330 ng/mL, the AUC(0-inf) was found to be 3110 ng·h/mL and the half-life is 1.62 h.

In the case of `CNC1CN(c2nc3ncc(Cl)cc3n3cnnc23)C1` [Compound 18, 1-(8-Chloropyrido[2,3-e][1,2,4]triazolo[4,3-a]pyrazin-4-yl)-N-methylazetidin-3-amine], the IC50 in series [2] came to 2.9 µM. In series [1], the Cmax worked out at 2590 ng/mL, the AUC(0-inf) was found to be 4560 ng·h/mL and the half-life was 1.04 h.

`CNC1CN(c2nc3ncc(Br)cc3n3cnnc23)C1` [Compound 24, 1-(8-Bromopyrido[2,3-e][1,2,4]triazolo[4,3-a]pyrazin-4-yl)-N-methylazetidin-3-amine]: the IC50 in series [2] came to 9.1 µM. Moreover, in series [1], the Cmax amounted to 2420 ng/mL, the AUC(0-inf) was 4510 ng·h/mL and the half-life was 1.3 h. Also, in series [3] (25 mg/kg), the “Scoring of Skin lesions (day 21)” value came to 7.2. The “Scoring of Skin lesions (day 21)” value in series [3] (50 mg/kg) is on record as 4.4^1.

With `CNC1CN(c2nc3ncc(I)cc3n3cnnc23)C1` [Compound 48, 1-(8-Iodopyrido[2,3-e][1,2,4]triazolo[4,3-a]pyrazin-4-yl)-N-methylazetidin-3-amine], in series [2], the inhibition at 10 µM was determined as 28% and the half-inhibitory concentration (IC50) was above 10 µM.

Regarding `CNC1CN(c2nc3ncc(Br)cc3n3nnnc23)C1` [Compound 95, 1-(8-Bromopyrido[2,3-e]tetrazolo[1,5-a]pyrazin-4-yl)-N-methylazetidin-3-amine], in series [2], the inhibition at 10 µM is 25% and the IC50 is above 10 µM.

For the origin of these results see patent publication US9586959B2, “Substituted tricyclic heterocycles as histamine 4 receptor inhibitors” (C&C RESEARCH LABORATORIES, priority 2011, dated 2017).
